Assay results: patent US20120244549A1, “Detection Method for Methyltransferase Enzymatic Activity” (BELLBROOK LABS, LLC, priority 2011, published 2012)

Target: T1, G9a methyltransferase (Homo sapiens, UniProt Q96KQ7)
T1 sequence (Q96KQ7 1-1210): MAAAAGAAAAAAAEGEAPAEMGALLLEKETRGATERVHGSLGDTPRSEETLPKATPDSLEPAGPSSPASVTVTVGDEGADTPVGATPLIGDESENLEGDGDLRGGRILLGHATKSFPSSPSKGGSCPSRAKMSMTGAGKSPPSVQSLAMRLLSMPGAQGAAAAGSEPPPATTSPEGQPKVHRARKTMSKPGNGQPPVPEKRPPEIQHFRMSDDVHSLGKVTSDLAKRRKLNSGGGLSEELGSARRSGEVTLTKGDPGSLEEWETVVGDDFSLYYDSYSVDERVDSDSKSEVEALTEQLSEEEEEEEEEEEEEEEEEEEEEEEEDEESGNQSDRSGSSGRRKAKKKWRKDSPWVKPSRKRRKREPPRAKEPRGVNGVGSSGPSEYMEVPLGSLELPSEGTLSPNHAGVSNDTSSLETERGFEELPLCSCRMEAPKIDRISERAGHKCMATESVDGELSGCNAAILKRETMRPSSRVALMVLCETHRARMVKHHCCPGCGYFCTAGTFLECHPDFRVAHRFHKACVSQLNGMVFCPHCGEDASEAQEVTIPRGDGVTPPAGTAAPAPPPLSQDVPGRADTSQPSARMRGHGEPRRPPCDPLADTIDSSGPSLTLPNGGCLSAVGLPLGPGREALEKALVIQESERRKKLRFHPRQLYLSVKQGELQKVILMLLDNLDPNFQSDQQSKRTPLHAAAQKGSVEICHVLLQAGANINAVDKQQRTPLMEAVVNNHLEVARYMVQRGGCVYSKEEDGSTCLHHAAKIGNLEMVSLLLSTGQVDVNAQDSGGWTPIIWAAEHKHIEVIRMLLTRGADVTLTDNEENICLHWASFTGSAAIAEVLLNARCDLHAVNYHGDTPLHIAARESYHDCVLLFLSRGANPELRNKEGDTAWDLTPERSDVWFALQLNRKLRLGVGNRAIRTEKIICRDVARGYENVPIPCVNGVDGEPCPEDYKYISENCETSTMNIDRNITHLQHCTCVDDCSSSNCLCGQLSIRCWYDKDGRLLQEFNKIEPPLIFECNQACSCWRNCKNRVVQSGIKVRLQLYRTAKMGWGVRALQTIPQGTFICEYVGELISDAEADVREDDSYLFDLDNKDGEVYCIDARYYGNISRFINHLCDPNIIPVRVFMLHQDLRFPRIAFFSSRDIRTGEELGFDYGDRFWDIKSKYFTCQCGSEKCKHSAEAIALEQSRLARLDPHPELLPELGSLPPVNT
Test: G9a histone methyltransferase inhibitor dose response, coupled-enzyme AMP fluorescent immunodetection assay (FIG. 6)
Type: biochemical
Experimental: In addition, inhibitor potencies were determined with G9a HMT.
HMT reactions were run for 60 minutes followed by addition of quench and detection reagents including the SAM-SAH coupling enzyme mixture and the Transcreener® AMP2/GMP2 Assay monoclonal antibody and tracer.

Structure (SMILES): CN1C(=O)[C@@]23C[C@]4([C@]56C[C@@]78SS[C@@](CO)(C(=O)N7[C@H]5Nc5ccccc56)N(C)C8=O)c5ccccc5N[C@@H]4N2C(=O)[C@]1(CO)SS3 [chaetocin]
- IC50: 770 µM
